For one data set, the target named is T1, CheA WT (Tm CheA) (Thermotoga maritima, UniProt Q56310).
T1 sequence (Q56310 1-671): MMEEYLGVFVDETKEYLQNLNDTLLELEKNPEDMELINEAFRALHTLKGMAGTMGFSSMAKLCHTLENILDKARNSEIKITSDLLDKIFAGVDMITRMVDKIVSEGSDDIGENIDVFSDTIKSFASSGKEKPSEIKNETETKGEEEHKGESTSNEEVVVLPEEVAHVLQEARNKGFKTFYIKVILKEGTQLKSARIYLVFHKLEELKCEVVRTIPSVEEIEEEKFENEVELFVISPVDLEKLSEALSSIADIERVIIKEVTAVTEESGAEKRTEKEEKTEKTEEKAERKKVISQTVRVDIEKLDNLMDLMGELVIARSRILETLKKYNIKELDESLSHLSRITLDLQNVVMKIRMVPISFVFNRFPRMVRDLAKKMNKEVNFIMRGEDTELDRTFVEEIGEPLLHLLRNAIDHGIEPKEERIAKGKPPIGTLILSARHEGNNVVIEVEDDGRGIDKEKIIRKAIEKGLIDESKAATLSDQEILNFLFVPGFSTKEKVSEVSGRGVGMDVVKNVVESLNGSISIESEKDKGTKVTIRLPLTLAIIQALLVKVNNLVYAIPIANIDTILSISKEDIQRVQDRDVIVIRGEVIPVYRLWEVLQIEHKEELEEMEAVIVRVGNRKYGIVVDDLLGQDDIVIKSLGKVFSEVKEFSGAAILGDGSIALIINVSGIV
Kind of data set: TNP-ATP displacement, fluorescence. Type of data set: binding.

The data set “SEC + other: SAXS” deals with the molecule itself. Put plainly: SEC + other: SAXS.

Here are results for two molecules from PMC10134573 (Biochemistry, 2022).

As for `Nc1ncnc2c1ncn2[C@@H]1O[C@H](COP(=O)(O)OP(=O)(O)O)[C@@H](O)[C@H]1O` [ADP], the IC50 on CheA WT (Tm CheA) came out at 405 ± 21 µM.

B1: Thermotoga maritima CheA WT (enzyme, UniProt Q56310 1-671, looked up)
chain: T1 sequence (Q56310 1-671)
Regarding B1, in “SEC + other: SAXS”, the “stoichiometry N” value turned out to be 2.

Usually IC50 stands for the concentration needed to halve the response being measured. A higher IC50 goes with weaker potency in that assay. What is called stoichiometry N is the number of molecules, sites or subunits per partner or assembly.
